# Where a name gives a salt, the structure may show the parent alone.
# Tests used:
# STAT3-SH2 domain = STAT3-SH2 domain (Homo sapiens, UniProt P40763); assay: STAT AlphaScreen-based assay (STAT3); format: binding; settings: for IC50: read-out: STAT3 IC50 ±SD; for inhibition at 30 µM: read-out: STAT3 % inhibition ± SD at 30 μM
# SH2-domain of STAT1 = target: T1, SH2-domain of STAT1 (Homo sapiens, UniProt P42224); assay: STAT AlphaScreen-based assay (STAT1 selectivity); format: binding; settings: for inhibition at 30 µM: read-out: STAT1 % inhibition ± SD at 30 μM, 30 μM; for IC50: read-out: STAT1 IC50 ±SD
# T1 sequence (P42224 1-750): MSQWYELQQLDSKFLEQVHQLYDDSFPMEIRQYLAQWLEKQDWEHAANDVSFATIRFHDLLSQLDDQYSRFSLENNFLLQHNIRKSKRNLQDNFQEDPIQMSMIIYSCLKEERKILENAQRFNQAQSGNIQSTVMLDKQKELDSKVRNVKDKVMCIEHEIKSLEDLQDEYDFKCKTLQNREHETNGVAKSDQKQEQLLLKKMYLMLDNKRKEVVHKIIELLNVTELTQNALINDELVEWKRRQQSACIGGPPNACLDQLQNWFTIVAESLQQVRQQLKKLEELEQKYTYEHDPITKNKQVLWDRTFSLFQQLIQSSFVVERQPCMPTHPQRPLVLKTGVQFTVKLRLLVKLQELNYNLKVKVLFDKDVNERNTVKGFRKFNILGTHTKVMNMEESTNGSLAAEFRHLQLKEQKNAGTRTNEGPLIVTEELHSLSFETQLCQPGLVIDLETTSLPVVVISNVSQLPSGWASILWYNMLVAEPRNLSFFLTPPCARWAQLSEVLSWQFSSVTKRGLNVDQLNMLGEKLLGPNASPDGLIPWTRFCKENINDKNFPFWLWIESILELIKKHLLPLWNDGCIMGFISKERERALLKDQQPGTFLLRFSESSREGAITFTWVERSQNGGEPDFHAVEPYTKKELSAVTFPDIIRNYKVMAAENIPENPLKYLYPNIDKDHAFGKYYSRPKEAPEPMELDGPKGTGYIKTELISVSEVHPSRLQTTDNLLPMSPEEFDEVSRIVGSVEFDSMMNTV
# Procedure: STAT3 inhibitory activity of the described compounds was tested by the AlphaScreen-based assay to evaluate the potential inhibition of the interaction between STAT3-SH2 domain and pTyr-containing peptides according to the previously reported procedure. For the most interesting compounds, selectivity tests versus STAT1 were performed.
# The new sulfurated-drug hybrids, together with their parent compounds have been submitted to the AlphaScreen-based assay, to investigate their ability to bind STAT3 directly, through the evaluation of the inhibition of the binding of SH2-containing proteins to their correspondent phosphopeptides, the physiological ligands. […] Since AlphaScreen is a cell-free assay, not always there is a correspondence between the potency of STAT3 inhibition and cytotoxicity, probably due to not optimal physicochemical properties of the tested compounds, such as solubility and chemical stability in the culture medium and cell permeation.
# [1] = tested on: NF-κB promoter activity in HCT-116 cells; assay: Luciferase reported NF-κB promoter activity assay; format: cell-based; settings: Homo sapiens, 2 h pre-treatment, TNF-α 10 ng/ml, NA = not active up to 100 μM, read-out: NF-κB promoter assay (HCT-116) IC50 ±SD
# Procedure: To measure the NF-κB promoter activity, HCT-116 cells were seeded in 100 mm dish and transiently transfected with 6 μg of DNA (NF-κB plasmid, containing luciferase reporter gene[57] with turbofect reagent (Carlo Erba Reagents). After 24 h, cells were seeded in 48-well plates (40.000 cells per well). On the next day, cells were incubated with our compounds for 2 h (pre-treatment) and then TNF-α was added in every well at (10 ng/ml). After 5–6 h, luciferase activity was measured by using Neolite reagent (PerkinElmer Life Sciences, Waltham, MA) according to the manufacturer’s instructions.
# HCT-116 cells = assay: MTT assay, cytotoxicity on HCT-116; format: cell-based, human; settings: human, HCT-116 cells, MTT assay, 48 h; NA = not active up to 100 μM; read-out: Cytotoxicity (HCT-116) IC50 ±SD
# Procedure: Following the same protocol used for previous cytotoxicity assays by N. Ferri[55], cells were seeded in 48-well plate (40.000 cells/well) and, after 24 h, they were incubated with different concentrations of our compounds for 48 h.
# The determination of the conversion of MTT (3-(4,5-dimethyl-2-thiazolyl)-2,5-diphenyl-2H-tetrazolium bromide) to formazan was determined by using a commercially available kit (Millipore, Billerica, MA), according to the manufacturer’s instructions.
# [2] = tested on: STAT3 reporter activity in HeLa cells; assay: STAT3 luciferase reporter gene assay; format: cell-based; settings: Homo sapiens, 2 h pretreatment, oncostatin M 10 ng/ml 4 h, read-out: STAT3 reporter assay (HeLa) IC50 ±SD
# Procedure: STAT3 reporter HeLa stable cell lines (Signosis Inc, Santa Clara, CA) were incubated in a 96-well microplate for 24 h. Cells were pretreated with test compounds for 2 h, and 10 ng/ml (w/v) of oncostatin M were applied and incubated for 4 h. Cells were washed with medium not supplemented with phenol red, and Steady-Glo® reagent (Promega, Madison, WI) was applied. After 15 min incubation, the signals were detected by ARVO Light 1420 (PerkinElmer Life Sciences, Waltham, MA). The relative signal intensity was calculated in each well as the ratio for the mean signal of vehicle.
# Chain of STAT3-SH2 domain (P40763 whole entry, the tested form may be a part): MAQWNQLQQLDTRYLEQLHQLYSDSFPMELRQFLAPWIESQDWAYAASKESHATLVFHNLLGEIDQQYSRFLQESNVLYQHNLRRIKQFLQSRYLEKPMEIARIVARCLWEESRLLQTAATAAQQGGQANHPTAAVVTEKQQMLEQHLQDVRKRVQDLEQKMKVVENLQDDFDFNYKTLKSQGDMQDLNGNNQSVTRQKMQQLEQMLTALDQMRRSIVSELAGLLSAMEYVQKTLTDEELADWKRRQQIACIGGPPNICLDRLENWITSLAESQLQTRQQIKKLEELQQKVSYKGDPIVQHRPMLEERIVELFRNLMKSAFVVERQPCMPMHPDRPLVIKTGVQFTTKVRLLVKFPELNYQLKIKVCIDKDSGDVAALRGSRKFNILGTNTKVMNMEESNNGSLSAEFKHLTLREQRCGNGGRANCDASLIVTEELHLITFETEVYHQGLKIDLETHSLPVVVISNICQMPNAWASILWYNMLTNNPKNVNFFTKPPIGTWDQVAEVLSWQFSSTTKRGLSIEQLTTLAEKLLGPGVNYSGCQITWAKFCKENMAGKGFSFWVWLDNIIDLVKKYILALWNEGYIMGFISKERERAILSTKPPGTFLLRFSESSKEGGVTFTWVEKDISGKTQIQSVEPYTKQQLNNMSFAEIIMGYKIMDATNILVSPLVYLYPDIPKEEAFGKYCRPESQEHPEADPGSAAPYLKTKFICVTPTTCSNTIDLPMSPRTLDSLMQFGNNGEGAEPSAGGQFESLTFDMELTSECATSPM
SMILES,IC50 (STAT3-SH2 domain; AlphaScreen assay),inhibition at 30 µM (STAT3-SH2 domain; AlphaScreen assay),inhibition at 30 µM (SH2-domain of STAT1),IC50 (SH2-domain of STAT1),other results
"CS(=O)(=O)SCCO [Compound 1, S-2-hydroxyethyl methanesulfonothioate]",> 30 µM,11.6%,,,
"CS(=O)(=O)SCCCCO [Compound 2, S-4-hydroxybutyl methanesulfonothioate]",4.4 ± 0.3 µM,88.4 ± 0.5%,73.7 ± 1.4%,8.6 ± 0.7 µM,
"CS(=O)(=O)SCCN [Compound 3, S-2-aminoethyl methanesulfonothioate hydrobromide]",> 30 µM,-10.2%,,> 3 µM,"inhibition at 3 µM (STAT3-SH2 domain; AlphaScreen assay, 3 μM): 46.8%; inhibition at 3 µM (SH2-domain of STAT1): 14.5%"
"C=CCSSCCO [Compound 4, 2-(Allyldisulfanyl)ethanol]",22.2 ± 3 µM,55.7 ± 2.5%,11.7 ± 6%,> 30 µM,
"Oc1ccc(-c2cc(=S)ss2)cc1 [Compound 5, 5-(4-hydroxyphenyl)-1,2-dithiol-3-thione]",> 30 µM,43.7%,,,IC50 [1]: 36.7 ± 11.4 µM; IC50 at 48 h (HCT-116 cells): 71.2 ± 15 µM
"CS(=O)(=O)SCCCCC(=O)O [Compound 6, 5-(methanesulfonylthio)pentanoic acid]",4.7 ± 1.1 µM,72.5 ± 4.8%,,> 3 µM,inhibition at 3 µM (SH2-domain of STAT1): 8.6%
"COC(=O)CCCCSS(C)(=O)=O [Compound 7, Methyl 5-((methylsulfonyl)thio)pentanoate]",1.9 ± 0.2 µM,99.6 ± 0.1%,70.8 ± 1.2%,20.1 ± 0.4 µM,
"CS(=O)(=O)CCCCC(=O)O [Compound 8, 5-(Methylsulfonyl)pentanoic acid]",> 30 µM,3.8 ± 2.8%,,,STAT3 IC50 ±SD (STAT3-SH2 domain; AlphaScreen assay): loss of activity on STAT3; melting point: 111.3 to 112.8 °C
"C=CCSSCCC(=O)O [Compound 9, 3-(allyldisulfanyl)propionic acid]",> 30 µM,43.9 ± 3.6%,,,
"C=CCSSCCC(=O)OC [Compound 10, Methyl 3-(allyldisulfanyl)propanoate]",> 30 µM,42 ± 4.7%,11.2%,> 30 µM,
"O=C(O)c1ccc(-c2cssc2=S)cc1 [Compound 11, 4-(3-thioxo-3H-1,2-dithiol-4-yl)benzoic acid]",> 100 µM,-1.2 ± 6%,,,IC50 [2]: > 100 µM
"COc1cc(/C=C/C(=O)O)ccc1O [Compound 12, ferulic acid, reference compound]",> 30 µM,0.2 ± 8.2%,,,
COC(=O)/C=C/c1ccc(O)c(OC)c1 [Compound 13],> 30 µM,2.1 ± 2.3%,,,
"COc1cc(/C=C/C(=O)OCCSS(C)(=O)=O)ccc1O [Compound 14, (E)-2-(methylsulfonylthio)ethyl 3-(4-hydroxy-3-methoxyphenyl)acrylate]",0.9 µM,110.1 ± 0.2%,110.5 ± 0.6%,7 ± 0.7 µM,IC50 [2]: 65.4 ± 1 µM; IC50 [1]: 116 ± 2.9 µM; IC50 at 48 h (HCT-116 cells): 50.4 ± 5.9 µM
"COc1cc(/C=C/C(=O)OCCCCSS(C)(=O)=O)ccc1O [Compound 15, (E)-4-(methylsulfonylthio)butyl 3-(4-hydroxy-3-methoxyphenyl)acrylate]",0.3 µM,100 ± 0.1%,86 ± 6.7%,1.8 ± 0.4 µM,IC50 [2]: 57.5 ± 1.1 µM; IC50 [1]: 94 ± 4.6 µM; IC50 at 48 h (HCT-116 cells): 64.4 ± 9.1 µM
"COc1cc(/C=C/C(=O)NCCSS(C)(=O)=O)ccc1O [Compound 16, (E)-S-2-(3-(4-hydroxy-3-methoxyphenyl)acrylamido)ethyl methanesulfonothioate]",1.8 ± 0.5 µM,107.8 ± 0.1%,4.1 ± 5.4%,> 30 µM,
"C=CCSSCCOC(=O)/C=C/c1ccc(O)c(OC)c1 [Compound 17, (E)-2-(allyldisulfanyl)ethyl 3-(4-hydroxy-3-methoxyphenyl)acrylate]",7.8 ± 0.6 µM,67.9 ± 0.8%,12 ± 4.7%,> 30 µM,
"COc1cc(/C=C/C(=O)Oc2ccc(-c3cc(=S)ss3)cc2)ccc1O [Compound 18, (E)-4-(3-thioxo-3H-1,2-dithiol-5-yl)phenyl 3-(4-hydroxy-3-methoxyphenyl)acrylate]",28.5 ± 0.7 µM,51.3 ± 0.7%,44.2 ± 1.9%,> 30 µM,
"COC(=O)/C=C/c1ccc(O)c(O)c1 [Compound 20, (E)-methyl 3-(3,4-dihydroxyphenyl)acrylate]",> 30 µM,12.8 ± 1.1%,,,IC50 at 48 h (HCT-116 cells): 90.8 µM
"CS(=O)(=O)SCCNC(=O)/C=C/c1ccc(O)c(O)c1 [Compound 22, (E)-S-2-(3-(3,4-dihydroxyphenyl)acrylamido)ethyl methanesulfonothioate]",0.9 ± 0.1 µM,99.8 ± 0.1%,-17.8 ± 0.3%,> 30 µM,
"CS(=O)(=O)SCCOC(=O)C=Cc1ccccc1 [Compound 25, 2-(Methylsulfonylthio)ethyl cinnamate]",0.5 µM,100%,100.3 ± 0.2%,3.6 ± 0.4 µM,IC50 [2]: 72.5 ± 4.4 µM; IC50 at 48 h (HCT-116 cells): 95.2 ± 8.9 µM; melting point: 76.8 to 78.5 °C
"CS(=O)(=O)SCCOC(=O)/C=C/c1ccc(Cl)c(Cl)c1 [Compound 26, (E)-2-(methylsulfonylthio)ethyl 3-(3,4-dichlorophenyl)acrylate]",0.3 µM,100 ± 0.1%,104 ± 1.7%,1.9 ± 0.2 µM,melting point: 69.6 to 71.2 °C
"COc1ccc(/C=C/C(=O)OCCSS(C)(=O)=O)cc1OC [Compound 27, (E)-2-((methylsulfonyl)thio)ethyl 3-(3,4-dimethoxyphenyl)acrylate]",0.3 µM,99.7 ± 0.1%,68.9 ± 10.2%,20.9 ± 4.9 µM,fold more selective for STAT3 versus STAT1 (STAT3-SH2 domain; in comparison to 15 and 26): 10 fold; melting point: 99.8 to 102.7 °C
"COCCOCOc1ccc(/C=C/C(=O)OCCSS(C)(=O)=O)cc1OCOCCOC [Compound 28, (E)-2-(methylsulfonylthio)ethyl 3-(3,4-bis((2-methoxyethoxy)methoxy)phenyl)acrylate]",0.6 ± 0.1 µM,100 ± 0.1%,98.4 ± 0.9%,6.3 ± 0.5 µM,
"COCCOCOc1ccc(/C=C/C(=O)NCCSS(C)(=O)=O)cc1OCOCCOC [Compound 29, (E)-S-2-(3-(3,4-bis((2-methoxyethoxy)methoxy)phenyl)acrylamido)ethyl methanesulfonothioate]",1.1 µM,100.1 ± 0.1%,63.3 ± 0.5%,19.5 ± 0.3 µM,melting point: 62.3 to 64.6 °C
